Data on 4 molecules can be found in patent US7008531B2, “Treatment of circulating water systems” (Arch Chemicals Inc., priority 2000, dated 2006).

Series [1] relates to field isolated mustard algae. Description: Remedial laboratory study on algae (flask test, optical density after 5 days). The series is classed as cell-based. The following applies: for Difference in performance between octadecylamine and dimethyloctadecylamine: 2.5 ppm with PHMB 4.0 ppm, summary of Table 2; for Comments (algae control) / Average Optical Density: Table 2, 5 days; for Average Optical Density: initial absorbance 0.10, <0.2 = algistatic or algicidal. The method, then: Remedial efficacy was evaluated in this example using field isolated mustard algae.
Studies were conducted in 125 ml flasks containing 6 mm borosilicate glass beads (50) and Jaworski's medium (50 ml). The flasks were inoculated with pooled cultures of mustard algae to achieve an initial absorbance of 0.10, as measured using a Milton Roy Spec 20 Spectrophotometer. […] The adjuvants identified in Table 2 were added at levels of 1.25 and 2.5 ppm active ingredient. Busan 20/20™ identified in Table 3 was added at levels of 0.625, 1.25, 2.5 and 5.0 ppm. The performance of the adjuvants were compared to the controls with and without PHMB. The flasks were closed using translucent caps, illuminated for 8 hours using a combination of fluorescent grow lamps and standard incandescent lamps each day and incubated at 80° F. for a period of 5 days. Algal growth was measured after 5 days using a Milton Roy Spec 20 spectrophotometer. The higher the optical density the heavier the growth.

Series [2] relates to field isolated mustard algae. The series can be described thus: Preventative laboratory study on algae (flask test, visual growth score). The following applies: for Average Visual Score: 10 days, 0-4 scale, any score >1 is a preventative failure. Type of series: cell-based. As to the method: In preventative laboratory treatment studies, growth conditions are optimised to support a bloom. An experimental flask is prepared with a medium having optimised growth conditions to support a bloom, the medium in the flask is treated with a prescribed concentration of a test formulation, and then inoculated with a low concentration of a bloom-forming organism. The medium is monitored for a period of time to observe whether the formulation is effective at preventing an algal bloom.
These studies used the most problematic organisms, i.e. field isolated mustard algae.
The Jawaorski's medium was modified by the addition of 4 ppm polyhexamethylene biguanide (PHMB) (ex Avecia Inc.) to inhibit the growth of the bacteria present in the algal isolates. The inocula were harvested by aseptic vacuum filtration and the concentration of algal cell masses were combined (“pooled”) and redispersed in a aseptic medium to provide a concentrated pooled inoculum. The amount of inoculum used was varied to achieve an initial optical density of 0.010 in the test flasks. The optical density was determined using a Milton Roy Spec 20 spectrophotometer.
[…] Each flask was then inoculated with a prescribed amount of the pooled inoculum, so that the liquid in the flask had no visible green cast.

Series [3] in a line: Effect of adjuvant on water clarity (simulated swimming pool water, Hach Turbidimeter and visual inspection). Type of series: physicochemical. The conditions noted are these: for Turbidity / Visual Observations: simulated pool water with PHMB 6-12 ppm, pH 7.2-7.8, circulated 24 hours; for Turbidity: 70±3° F.; for Effect on water clarity: summary of Table 4, simulated pool water with PHMB. The method, then:
Six 10 gallon fish aquariums equipped with a heater and a recirculating pump (to simulate a swimming pool environment) were filled with simulated swimming pool water containing polyhexamethylene biguanide (PHMB) comprising:
The pH of the tanks was maintained between 7.2 and 7.8 and the water temperature was maintained at 70±3° F. After the chemical additions the water was circulated for 24 hours. The water in each tank was then visually inspected and tested for turbidity using a Hach Turbidimeter.

Setting [4] is: adjuvant 1.25 ppm + PHMB 4.0 ppm.
[5] abbreviates: adjuvant 2.5 ppm + PHMB 4.0 ppm.

`CCCCCCCCCCCCCCCCCCN(C)C` [Dimethyloctadecylamine, dimethyloctadecylamine]: the “Difference in performance between octadecylamine and dimethyloctadecylamine” value in series [1] is “no significant difference”. Also, the “Comments (algae control)” value in series [1] (setting [4]) is listed as “Control”. Further, the entries for the “Average Optical Density” value in series [1] (setting [4]) and in series [1] (setting [5]) were 0.12 and 0.07, respectively.
`CCCCCCCCCCCCN` [Dodecylamine, dodecylamine]: the “Average Optical Density” value is reported as 0.08 in series [1] (setting [4]) and 0.12 in series [1] (setting [5]). Further, the “Comments (algae control)” value in series [1] (setting [5]) is listed as “Control”. For the same molecule, the “Average Visual Score” value in series [2] (setting [5]), in series [2] (adjuvant 5.0 ppm + PHMB 4.0 ppm), in series [2] (adjuvant 10.0 ppm + PHMB 4.0 ppm) and in series [2] (adjuvant 15.0 ppm + PHMB 4.0 ppm) was 0 in each case. The “Preventing the field isolated mustard algae outbreak, compared with PHMB alone” value in series [2] (in combination with PHMB, summary of Table 1) is “effectiveness”. The Turbidity is reported as 2.7 NTU in series [3] (adjuvant 2.5 ppm), 1.8 NTU in series [3] (adjuvant 5.0 ppm) and 2.5 NTU in series [3] (adjuvant 10.0 ppm). Further, the “Visual Observations” value in series [3] (adjuvant 2.5 ppm), in series [3] (adjuvant 5.0 ppm) and in series [3] (adjuvant 10.0 ppm) was “Clear” throughout. For the same molecule, the “Effect on water clarity” value in series [3] is “no effect on water clarity”.
Take `CCCCCCCCCCCCCCCCCCN` [Octadecylamine, octadecylamine]: in series [1], the “Difference in performance between octadecylamine and dimethyloctadecylamine” value is “no significant difference”. For the same molecule, in series [1] (setting [4]), the “Comments (algae control)” value was “Control”. The “Average Optical Density” value in series [1] (setting [4]) is 0.16; in series [1] (setting [5]), 0.08.
Take `CCCCCCCCCCCCCCN` [Tetradecylamine, reference compound]: the Turbidity in series [3] (adjuvant 5.0 ppm) was 10.1 NTU; in series [3] (adjuvant 10.0 ppm), 19.0 NTU. Besides, the “Visual Observations” value in series [3] (adjuvant 5.0 ppm) and in series [3] (adjuvant 10.0 ppm) was “Cloudy” each time. Further, the “Effect on water clarity” value in series [3] was “resulted in water turbidity”.
